Results: paper PMC3989164, “Multi-Kinase Inhibitor C1 Triggers Mitotic Catastrophe of Glioma Stem Cells Mainly through MELK Kinase Inhibition” (PLoS ONE, 2014)
pIC50: −log10 of the molar value.

Biological target: T1, maternal embryonic leucine-zipper kinase (MELK) (Homo sapiens, UniProt Q14680)
T1 construct: recombinant MELK protein
Experiment: in vitro kinase assay with recombinant MELK, ten-dose curve
Format: biochemical

T1 sequence (Q14680 whole entry): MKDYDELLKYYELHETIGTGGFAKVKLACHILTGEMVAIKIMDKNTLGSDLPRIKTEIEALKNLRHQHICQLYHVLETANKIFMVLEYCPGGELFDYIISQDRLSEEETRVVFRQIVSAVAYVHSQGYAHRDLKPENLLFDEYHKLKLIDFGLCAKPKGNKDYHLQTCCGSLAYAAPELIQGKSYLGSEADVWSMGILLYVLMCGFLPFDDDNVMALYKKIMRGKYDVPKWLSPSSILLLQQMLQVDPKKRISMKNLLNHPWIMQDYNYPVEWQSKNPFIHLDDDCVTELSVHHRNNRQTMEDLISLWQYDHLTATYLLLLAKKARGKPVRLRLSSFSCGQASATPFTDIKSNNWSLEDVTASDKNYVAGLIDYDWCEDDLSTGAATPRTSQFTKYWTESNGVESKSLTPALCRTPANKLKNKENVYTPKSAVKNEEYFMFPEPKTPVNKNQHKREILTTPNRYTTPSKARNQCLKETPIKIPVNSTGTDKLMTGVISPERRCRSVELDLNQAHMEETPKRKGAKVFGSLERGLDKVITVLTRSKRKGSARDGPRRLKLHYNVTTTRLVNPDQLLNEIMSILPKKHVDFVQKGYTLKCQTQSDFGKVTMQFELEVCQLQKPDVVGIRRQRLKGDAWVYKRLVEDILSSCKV

For `CCc1c[nH]c(=O)c2c1[nH]c1ccc3cc(OC)ccc3c12` [C1, Compound 1], the pIC50 was 7.38.
